Test results reported in ChEMBL document CHEMBL1201862, “PubChem BioAssay data set” (2004).
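All cell lines were grown in 96-well plates and treated with compound for 48 hours. GI50: concentration for 50% inhibition of growth.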 Active and inactive are the calls of the source. Rule as the data show it: active = GI50 up to about 1.1 µM and inactive = higher.

Tests used:
Assay in all cases: NCI tumour cell line growth inhibition, 48 h
HL-60 = test system: HL-60
DMS-273 = test system: DMS-273
UO-31 = test system: UO-31
KM12 = test system: KM12
KM-20L2 = test system: KM-20L2
SF-268 = test system: SF-268
OVCAR-3 = test system: OVCAR-3
SN12C = test system: SN12C
HCT-116 = test system: HCT-116
DLD-1 = test system: DLD-1
MOLT-4 = test system: MOLT-4
SW-620 = test system: SW-620
M14 = test system: M14
SNB-19 = test system: SNB-19
SK-MEL-2 = test system: SK-MEL-2
SF-539 = test system: SF-539
SR = test system: SR
DMS-114 = test system: DMS-114
ACHN = test system: ACHN
SK-MEL-28 = test system: SK-MEL-28
SK-OV-3 = test system: SK-OV-3
COLO 205 = test system: COLO 205
A549 = test system: A549
K562 = test system: K562
HCT-15 = test system: HCT-15
NCI-H226 = test system: NCI-H226
NCI-H460 = test system: NCI-H460
A498 = test system: A498
CCRF-CEM = test system: CCRF-CEM
EKVX = test system: EKVX
LXFL 529 = test system: LXFL 529
SNB-75 = test system: SNB-75
CAKI-1 = test system: CAKI-1
RXF 631 = test system: RXF 631
HOP-18 = test system: HOP-18
UACC-62 = test system: UACC-62
TK-10 = test system: TK-10
NCI-H522 = test system: NCI-H522
IGROV-1 = test system: IGROV-1
U-251 = test system: U-251
M19-MEL = test system: M19-MEL
HOP-62 = test system: HOP-62
RPMI-8226 = test system: RPMI-8226
RXF 393 = test system: RXF 393
OVCAR-8 = test system: OVCAR-8
UACC-257 = test system: UACC-257
Malme-3M = test system: Malme-3M
SK-MEL-5 = test system: SK-MEL-5
OVCAR-4 = test system: OVCAR-4
HCC 2998 = test system: HCC 2998
SNB-78 = test system: SNB-78
786-0 = test system: 786-0
SF-295 = test system: SF-295
XF498 = test system: XF498
HOP-92 = test system: HOP-92
LOX IMVI = test system: LOX IMVI
NCI-H23 = test system: NCI-H23
HT-29 = test system: HT-29
OVCAR-5 = test system: OVCAR-5

In the case of `O=C(O)C1CCc2nnc(-c3ccccc3)n21` (stereo not given), the GI50 (HL-60) is reported as > 100 µM (inactive), the GI50 (DMS-273) is reported as > 100 µM (inactive) and the GI50 (UO-31) is reported as > 100 µM (inactive). For the same compound, the GI50 (KM12) was > 100 µM (inactive), the GI50 (KM-20L2) was > 100 µM (inactive) and the GI50 (SF-268) was > 100 µM (inactive). The GI50 (OVCAR-3) was > 100 µM (inactive), the GI50 (SN12C) was > 100 µM (inactive) and the GI50 (HCT-116) was > 100 µM (inactive). For the same compound, the GI50 (DLD-1) was > 100 µM (inactive), the GI50 (MOLT-4) was > 100 µM (inactive) and the GI50 (SW-620) was > 100 µM (inactive). The GI50 (M14) was > 100 µM (inactive), the GI50 (SNB-19) was > 100 µM (inactive) and the GI50 (SK-MEL-2) was > 100 µM (inactive). For the same compound, the GI50 (SF-539) was > 100 µM (inactive), the GI50 (SR) was > 100 µM (inactive) and the GI50 (DMS-114) was > 100 µM (inactive). The GI50 (ACHN) was > 100 µM (inactive), the GI50 (SK-MEL-28) was > 100 µM (inactive) and the GI50 (SK-OV-3) was > 100 µM (inactive). For the same compound, the GI50 (COLO 205) was > 100 µM (inactive), the GI50 (A549) was > 100 µM (inactive) and the GI50 (K562) was > 100 µM (inactive). For the same compound, the GI50 (HCT-15) was greater than 100 µM, the GI50 (NCI-H226) was > 100 µM (inactive) and the GI50 (NCI-H460) was > 100 µM (inactive). For the same compound, the GI50 (A498) was > 100 µM (inactive), the GI50 (CCRF-CEM) was > 100 µM (inactive) and the GI50 (EKVX) was > 100 µM (inactive). The GI50 (LXFL 529) was > 100 µM (inactive), the GI50 (SNB-75) was > 100 µM (inactive) and the GI50 (CAKI-1) was > 100 µM (inactive). The GI50 (RXF 631) was > 100 µM (inactive), the GI50 (HOP-18) was > 100 µM (inactive) and the GI50 (UACC-62) was > 100 µM (inactive). For the same compound, the GI50 (TK-10) was > 100 µM (inactive), the GI50 (NCI-H522) was > 100 µM (inactive) and the GI50 (IGROV-1) was > 100 µM (inactive). For the same compound, the GI50 (U-251) was > 100 µM (inactive), the GI50 (M19-MEL) was > 100 µM (inactive) and the GI50 (HOP-62) was > 100 µM (inactive). For the same compound, the GI50 (RPMI-8226) was > 100 µM (inactive), the GI50 (RXF 393) was > 100 µM (inactive) and the GI50 (OVCAR-8) was > 100 µM (inactive). For the same compound, the GI50 (UACC-257) was > 100 µM (inactive), the GI50 (Malme-3M) was > 100 µM (inactive) and the GI50 (SK-MEL-5) was > 100 µM (inactive). The GI50 (OVCAR-4) was > 100 µM (inactive), the GI50 (HCC 2998) was > 100 µM (inactive) and the GI50 (SNB-78) was > 100 µM (inactive). For the same compound, the GI50 (786-0) was > 100 µM (inactive).
With `Cn1nc(-c2ccccc2)c2c(/C=C/c3ccc(Cl)cc3)onc2c1=O` the GI50 (DMS-273) was > 100 µM (inactive), the GI50 (UO-31) was 16.3 µM (inactive) and the GI50 (KM-20L2) was 19.1 µM (inactive). The GI50 (SF-295) was 27.4 µM (inactive), the GI50 (SF-268) was > 100 µM (inactive) and the GI50 (SN12C) was 17.1 µM (inactive). The GI50 (HCT-116) was 11.1 µM (inactive), the GI50 (DLD-1) was 46 µM (inactive) and the GI50 (XF498) was 10.5 µM (inactive). The GI50 (MOLT-4) was > 100 µM (inactive), the GI50 (SW-620) was 28.7 µM (inactive) and the GI50 (M14) was > 100 µM (inactive). For the same compound, the GI50 (SNB-19) was 41.5 µM (inactive), the GI50 (SF-539) was 22.6 µM (inactive) and the GI50 (DMS-114) was > 100 µM (inactive). For the same compound, the GI50 (ACHN) was 8.57 µM (inactive), the GI50 (HOP-92) was 21.7 µM (inactive) and the GI50 (SK-MEL-28) was 51.3 µM (inactive). The GI50 (SK-OV-3) was > 10 µM (inactive), the GI50 (COLO 205) was 30.8 µM (inactive) and the GI50 (A549) was 8.95 µM (inactive). For the same compound, the GI50 (K562) was 40.8 µM (inactive), the GI50 (LOX IMVI) was 25.6 µM (inactive) and the GI50 (HCT-15) was 26.3 µM. For the same compound, the GI50 (NCI-H23) was > 100 µM (inactive), the GI50 (NCI-H460) was > 100 µM (inactive) and the GI50 (CCRF-CEM) was 27.7 µM (inactive). The GI50 (EKVX) was > 100 µM (inactive), the GI50 (LXFL 529) was 39.9 µM (inactive) and the GI50 (CAKI-1) was > 10 µM (inactive). The GI50 (RXF 631) was > 100 µM (inactive), the GI50 (HOP-18) was 9.84 µM (inactive) and the GI50 (UACC-62) was 35.8 µM (inactive). The GI50 (TK-10) was 33 µM (inactive), the GI50 (NCI-H522) was 13.3 µM (inactive) and the GI50 (IGROV-1) was 31.4 µM (inactive). The GI50 (U-251) was 33.7 µM (inactive), the GI50 (M19-MEL) was 89.9 µM (inactive) and the GI50 (RPMI-8226) was 31.8 µM (inactive). The GI50 (RXF 393) was 39.8 µM (inactive), the GI50 (OVCAR-8) was 16.7 µM (inactive) and the GI50 (SK-MEL-5) was > 100 µM (inactive). For the same compound, the GI50 (HT-29) was 34.4 µM (inactive) and the GI50 (786-0) was 7.6 µM (inactive).
`Nc1ccccc1S(=O)(=O)c1ccccc1` was tested, and the GI50 (HL-60) was > 100 µM (inactive), the GI50 (DMS-273) was > 100 µM (inactive) and the GI50 (UO-31) was > 100 µM (inactive). The GI50 (KM12) was > 100 µM (inactive), the GI50 (KM-20L2) was > 100 µM (inactive) and the GI50 (SF-295) was > 100 µM (inactive). The GI50 (SF-268) was > 100 µM (inactive), the GI50 (OVCAR-3) was > 100 µM (inactive) and the GI50 (SN12C) was > 100 µM (inactive). The GI50 (HCT-116) was > 100 µM (inactive), the GI50 (DLD-1) was > 100 µM (inactive) and the GI50 (MOLT-4) was > 100 µM (inactive). For the same compound, the GI50 (SW-620) was > 100 µM (inactive), the GI50 (M14) was > 100 µM (inactive) and the GI50 (SNB-19) was > 100 µM (inactive). The GI50 (SK-MEL-2) was > 100 µM (inactive), the GI50 (SF-539) was > 100 µM (inactive) and the GI50 (SR) was > 100 µM (inactive). The GI50 (DMS-114) was > 100 µM (inactive), the GI50 (ACHN) was > 100 µM (inactive) and the GI50 (HOP-92) was > 100 µM (inactive). For the same compound, the GI50 (SK-MEL-28) was > 100 µM (inactive), the GI50 (SK-OV-3) was > 100 µM (inactive) and the GI50 (COLO 205) was > 100 µM (inactive). For the same compound, the GI50 (A549) was > 100 µM (inactive), the GI50 (K562) was > 100 µM (inactive) and the GI50 (LOX IMVI) was > 100 µM (inactive). The GI50 (HCT-15) was greater than 100 µM, the GI50 (NCI-H23) was > 100 µM (inactive) and the GI50 (OVCAR-5) was > 100 µM (inactive). The GI50 (NCI-H226) was 51.2 µM (inactive), the GI50 (NCI-H460) was > 100 µM (inactive) and the GI50 (A498) was > 100 µM (inactive). For the same compound, the GI50 (CCRF-CEM) was > 100 µM (inactive), the GI50 (EKVX) was > 100 µM (inactive) and the GI50 (LXFL 529) was > 100 µM (inactive). The GI50 (SNB-75) was 41.1 µM (inactive), the GI50 (RXF 631) was > 100 µM (inactive) and the GI50 (HOP-18) was > 100 µM (inactive). For the same compound, the GI50 (UACC-62) was > 100 µM (inactive), the GI50 (TK-10) was > 100 µM (inactive) and the GI50 (IGROV-1) was > 100 µM (inactive). The GI50 (U-251) was > 100 µM (inactive), the GI50 (M19-MEL) was > 100 µM (inactive) and the GI50 (HOP-62) was > 100 µM (inactive). The GI50 (RPMI-8226) was > 100 µM (inactive), the GI50 (RXF 393) was > 100 µM (inactive) and the GI50 (OVCAR-8) was > 100 µM (inactive). For the same compound, the GI50 (UACC-257) was > 100 µM (inactive), the GI50 (Malme-3M) was > 100 µM (inactive) and the GI50 (SK-MEL-5) was > 100 µM (inactive). For the same compound, the GI50 (OVCAR-4) was > 100 µM (inactive), the GI50 (HCC 2998) was > 100 µM (inactive) and the GI50 (HT-29) was > 100 µM (inactive).
